Assay results reported in patent EP4806892A1, “CEREBLON E3 UBIQUITIN LIGASE INHIBITOR” (GAN & LEE PHARMACEUTICALS CO., LTD., priority 2023, dated 2025).

Key:
Assay type in all cases: cell-based
AR protein = biological target: T1, AR protein (Homo sapiens, UniProt P10275, T878A); assay: AR protein degradation in LNCaP cells (Western blot); conditions: 8 hours
T1 construct: AR-positive human prostate cancer cells (LNCaP, cell source: ATCC); host or cells: LNCaP
Description: AR-positive human prostate cancer cells (LNCaP, cell source: ATCC) were cultured in RPMI 1640 (ATCC catalog number 30-2001) containing 10% FBS (Hyclone catalog number SH30406.05), and the cells were inoculated into a six-well microplate (Thermo catalog number 140675) at a density of 1.5 × 10^5 cells/well. After the cells were cultured overnight in a carbon dioxide incubator (ESCO), the prepared compound of the present invention and the positive control sample ARV-766 (source: energy chemical) solution of different concentrations were added at a volume of 1 µL/well to make the final concentrations of the compound and the positive control sample reach 100nM and 10nM, respectively. At the same time, the corresponding solvent control was set and cultured for 8 hours. After 8 hours of culture, the culture medium was removed, the cells were washed with PBS, and RIPA lysis buffer containing 1% Protease Inhibitor Cocktail was added. After lysis and centrifugation, the total protein extract was obtained, and the protein concentration in the extract was detected by BCA method. Protein electrophoresis was performed using SDS-PAGE, and then the protein was transferred to a PVDF (Millipore Sigma catalog number PSRP010R5) membrane at a constant voltage of 100V for 60 minutes. The PVDF membrane was placed in a 5% milk powder 1×TBST solution and blocked at room temperature for 1 hour. The primary antibody solution (Anti-Androgen receptor, Cell Signaling Technology catalog number: 5153S; 1:2000 dilution) was prepared and incubated at 4°C overnight. The primary antibody solution was discarded and the PVDF membrane was washed with 1×TBST for 5 minutes each time, three times. The secondary antibody solution (Thermo, catalog number SA5-35571; 1:7500 dilution) was prepared and incubated at room temperature for 1 hour. The secondary antibody solution was discarded and the PVDF membrane was washed with 1×TBST for 5 minutes each time, three times. A dual-color infrared laser imaging system (Licor catalog number Odyssey CLX) was used for Western membrane imaging. The Image Studio software was used to analyze the grayscale of the bands. GAPDH protein bands were also detected for each sample as an internal reference. The AR protein degradation rate of the compound and the positive control sample was calculated based on the grayscale of the protein bands. Among them, "A" means degradation rate ≥ 50%, "B" means 50%> degradation rate ≥ 20%, "C" means 20% degradation rate ≥ 10%, and "D" means degradation rate less than 10%.

LNCAP cell = assay: LNCaP cell proliferation inhibition (WST-8); conditions: Homo sapiens, LNCaP FGC cells, 96 hours, read-out: IC50 for inhibiting LNCAP cell proliferation
Description: LNCaP FGC cells (ATCC, CLR-1740) were cultured in RPMI 1640 (ATCC, 30-2001) complete medium supplemented with 10% fetal bovine serum (Hyclone, SH30406.05). On the first day of the experiment, LNCaP FGC cells were seeded at a density of 5,000 cells/well in 96-well plates using RPMI 1640 medium supplemented with 10% fetal bovine serum, with 100 µL of cell suspension per well. The cells were cultured overnight in a 37°C, 5% CO2 cell incubator. On the second day, 100 µL of different concentrations of the compound to be tested and the positive control sample ARV-766 (source: Energy Chemical) prepared in culture medium were added to each well. The final concentration of the compound was 9 concentration points of 5-fold serial dilution starting from 10 µM. The wells to which 100 µL of RPMI 1640 culture medium containing 10% fetal bovine serum was added were set as controls. The cells were cultured in a cell culture incubator at 37°C and 5% CO2 for 96 hours. On the sixth day, the 96-well cell culture plate was removed, and 1/10 volume of WST-8 (Beytime, C0040) reagent was added to each well. The absorbance at 450 nm was detected using a microplate reader (TECAN, F50).

VCaP cell = VCaP cell proliferation inhibition (WST-8); conditions: Homo sapiens, VCaP cells, 168 hours, read-out: IC50 for inhibiting VCAP cell proliferation
Description: VCaP cells (ATCC, CRL-2876) were cultured in DMEM (Gibco, 11995-065) complete medium containing 10% fetal bovine serum (Hyclone, SH30406.05). On the first day of the experiment, VCaP cells were seeded at a density of 15,000 cells/well in a 96-well plate using DMEM medium containing 10% fetal bovine serum, with 100 µL of cell suspension per well, and cultured overnight in a cell culture incubator at 37°C and 5% CO2. […] The final concentration of the compound was 9 concentration points of 5-fold serial dilution starting from 10 µM. The wells to which 100 µL of DMEM medium containing 10% fetal bovine serum was added were set as blank controls and cultured in a cell culture incubator at 37°C and 5% CO2 for 168 hours. On the ninth day, the 96-well cell culture plate was removed and 1/10 volume of WST-8 (Beytime, C0040) reagent was added to each well. The absorbance at 450 nm was measured using a microplate reader (TECAN, F50).

T-47D cells = assay: T-47D cell proliferation inhibition (CCK-8); conditions: Homo sapiens, T47D, 144 h, 6 days
Description: The complete culture medium required for breast ductal carcinoma T-47D cells is 1640 (ATCC, Product number: A10491-01) basal medium containing 10% fetal bovine serum. T-47D cells were seeded in 96-well plates at a density of 3,000/well, and different concentrations of PROTAC compounds 1-55 provided in the embodiments of the present invention and the positive control sample ARV-471 (source: Inokai) were prepared to treat the cells and incubated at 37°C, 5% CO2 in a cell culture incubator for 6 days. According to the manufacturer's instructions, the CCK-8 kit (Beyotime, Product number: C0040) was used to detect cell viability. The IC50 of each compound for 6 days was calculated using GraphPadPrism software based on the inhibition rate. Table 6: IC50 value for the inhibition of T-47D cell proliferation by PROTAC compounds and positive control sample

MCF-7 cells = assay: MCF-7 cell proliferation inhibition (CCK-8); conditions: Homo sapiens, MCF7, 144 h, 6 days
Description: The complete culture medium required for breast cancer MCF-7 cells (source ATCC) is DMEM (gibco, Product number: 11995-065) basal medium containing 10% fetal bovine serum. MCF-7 cells were seeded in 96-well plates at a density of 800 cells/well, and different concentrations of PROTAC compounds 1-55 provided in the embodiments of the present invention and the positive control sample ARV-471 (source: Inokai) were prepared to treat cells. The cells were incubated at 37 °C and 5% CO2 in a cell culture incubator for 6 days. Cell viability was detected using a CCK-8 kit (Beyotime, Product number: C0040) according to the manufacturer's instructions. The IC50 value of each PROTAC compound for 6 days was calculated using GraphPad Prism software based on the inhibition rate. Table 7: IC50 value for the inhibition of MCF-7 cell proliferation by PROTAC compounds of the present disclosure and positive control sample

T1 sequence (P10275 whole entry T878A): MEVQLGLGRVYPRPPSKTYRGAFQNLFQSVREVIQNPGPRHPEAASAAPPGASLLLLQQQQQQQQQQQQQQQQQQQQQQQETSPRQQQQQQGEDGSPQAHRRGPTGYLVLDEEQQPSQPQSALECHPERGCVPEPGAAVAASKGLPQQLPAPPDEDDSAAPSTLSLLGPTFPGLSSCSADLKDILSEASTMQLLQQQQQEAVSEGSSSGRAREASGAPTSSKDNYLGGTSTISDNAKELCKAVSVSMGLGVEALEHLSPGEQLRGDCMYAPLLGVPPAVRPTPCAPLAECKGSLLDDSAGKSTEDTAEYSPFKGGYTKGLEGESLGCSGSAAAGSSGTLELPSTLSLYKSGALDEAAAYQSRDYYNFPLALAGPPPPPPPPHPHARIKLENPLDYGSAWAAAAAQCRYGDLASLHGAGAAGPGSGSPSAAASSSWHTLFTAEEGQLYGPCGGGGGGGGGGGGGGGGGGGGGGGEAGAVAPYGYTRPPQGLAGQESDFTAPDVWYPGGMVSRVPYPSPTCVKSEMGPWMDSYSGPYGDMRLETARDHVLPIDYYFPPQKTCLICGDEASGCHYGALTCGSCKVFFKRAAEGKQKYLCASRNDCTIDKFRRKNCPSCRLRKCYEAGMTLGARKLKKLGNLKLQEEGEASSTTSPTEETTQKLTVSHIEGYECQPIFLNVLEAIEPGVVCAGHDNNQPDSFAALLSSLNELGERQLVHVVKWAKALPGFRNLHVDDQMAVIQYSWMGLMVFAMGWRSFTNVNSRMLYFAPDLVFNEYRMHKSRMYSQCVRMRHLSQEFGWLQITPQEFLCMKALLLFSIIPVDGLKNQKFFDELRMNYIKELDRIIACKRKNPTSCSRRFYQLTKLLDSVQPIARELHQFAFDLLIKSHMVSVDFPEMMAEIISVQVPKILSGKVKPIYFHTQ
T1 sequence (Q96SW2 whole entry partner): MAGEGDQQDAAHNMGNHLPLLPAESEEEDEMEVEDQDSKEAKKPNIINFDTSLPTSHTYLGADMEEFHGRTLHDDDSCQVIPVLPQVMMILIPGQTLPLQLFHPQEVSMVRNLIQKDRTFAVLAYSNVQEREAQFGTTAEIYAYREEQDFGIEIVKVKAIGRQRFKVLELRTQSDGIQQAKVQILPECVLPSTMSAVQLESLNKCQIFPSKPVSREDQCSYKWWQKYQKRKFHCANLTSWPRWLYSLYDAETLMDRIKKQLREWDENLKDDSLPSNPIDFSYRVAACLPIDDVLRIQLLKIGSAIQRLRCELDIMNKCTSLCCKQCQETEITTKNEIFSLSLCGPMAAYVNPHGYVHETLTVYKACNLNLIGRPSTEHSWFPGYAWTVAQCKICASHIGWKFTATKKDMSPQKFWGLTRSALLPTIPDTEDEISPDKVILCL

Row | SMILES | Degradation rate of AR protein in LNCAP cells (AR protein; 10 nM) | Degradation rate of AR protein in LNCAP cells (AR protein; 100 nM) | IC50 (LNCAP cell) | IC50 (VCaP cell) | IC50 (T-47D cells) | IC50 (MCF-7 cells)
1 | COc1cc(N2CC3(CCN(c4ccc(C(=O)N5CCC(CN6CCC7(CCc8ccc(N9CCC(=O)NC9=O)cc8O7)CC6)CC5)cc4)CC3)C[C@@H]2C)ccc1C#N [A-P-83, (S)-4-(8-(4-(4-((7-(2,4-dioxotetrahydropyrimidin-1(2H)-yl)spiro[chroman-2,4'-piperidine]-1'-yl)methyl)piperidine-1-carbonyl)phenyl)-3-methyl-2,8-diazaspiro[4.5]dec-2-yl)-2-methoxybenzonitrile] | A (degradation rate ≥ 50%) | A (degradation rate ≥ 50%) | 550 nM | < 0.026 nM | – | –
2 | O=C1CCN(c2ccc3c(c2)OCC32CCN(C[C@H]3CC[C@@H](OC4CCN(c5ccc([C@@H]6c7ccc(O)cc7CC[C@@H]6c6ccccc6)cc5)CC4)CC3)CC2)C(=O)N1 [ER-P-4, 1-(1'-(((1S,4S)-4-((1-(4-((1R,2S)-6-hydroxy-2-phenyl-1,2,3,4-tetrahydronaphthalen-1-yl)phenyl)piperidin-4-yl)oxy)cyclohexyl)methyl)-2H-spiro [benzofuran-3,4'-piperidine]-6-yl)dihydropyrimidine-2,4(1H,3H)-dione] | – | – | – | – | 52.5 nM | 944 nM
3 | O=C1CCC(c2ccc3c(c2)OC2(CC3)CCN(C[C@H]3CC[C@@H](OC4CCN(c5ccc([C@@H]6c7ccc(O)cc7CC[C@@H]6c6ccccc6)cc5)CC4)CC3)CC2)C(=O)N1 (stereo partly drawn) [ER-P-5, 3-(1'-(((1S,4S)-4-((1-(4-((1R,2S)-6-hydroxy-2-phenyl-1,2,3,4-tetrahydronaphthyl-1-yl)phenyl)piperidin-4-yl)oxy)cyclohexyl)methyl)spiro[chroman-2,4'-piperidine]-7-yl)piperidine-2,6-dione] | – | – | – | – | – | 873 nM

Second part, led by results:

Row | Degradation rate of AR protein in LNCAP cells (AR protein; 10 nM) | Degradation rate of AR protein in LNCAP cells (AR protein; 100 nM) | IC50 (LNCAP cell) | IC50 (VCaP cell) | IC50 (T-47D cells) | SMILES | IC50 (MCF-7 cells)
4 | – | – | – | – | 2.69 nM | O=C1CC[C@H](N2Cc3cc(N4CCN(CC5CCN(c6ccc([C@@H]7c8ccc(O)cc8CC[C@@H]7c7ccccc7)cc6)CC5)CC4)ccc3C2=O)C(=O)N1 [ARV-471, reference compound] | 113 nM
5 | – | – | – | – | 367 nM | O=C1CCN(c2ccc3c(c2)CC2(CCN(C[C@H]4CC[C@@H](OC5CCN(c6ccc([C@@H]7c8ccc(O)cc8CC[C@@H]7c7ccccc7)cc6)CC5)CC4)CC2)CO3)C(=O)N1 [ER-P-6, 1-(1'-(((1S,4S)-4-((1-(4-((1R,2S)-6-hydroxy-2-phenyl-1,2,3,4-tetrahydronaphthalen-1-yl)phenyl)piperidin-4-yl)oxy)cyclohexyl)methyl)spiro[benzo-dihydro-3,4'-piperidin]-6-yl)dihydropyrimidine-2,4(1H,3H)-dione] | 847 nM
